Reference: paper PMC8878468, “Image-Based Annotation of Chemogenomic Libraries for Phenotypic Screening” (Molecules, 2022)
Read-outs that look alike come from different tables or passages of the source.

What was measured:
HCT116-FUCCI cells [1] = experiment: FUCCI cell cycle assay with nuclear gating; type: cell-based, human; conditions: for main nuclei color / change of FUCCI nuclei population in comparison to DMSO: 10 µM; for main nuclei color: Table S3; for change of FUCCI nuclei population in comparison to DMSO: up to 70 h; for IC50: Homo sapiens, average and SEM of two independent experiments
Method: For generation of a stable cell line, including the florescent ubiquitination-base cell cycle indicator FUCCI, the plasmid-based transposon system Sleeping Beauty was used. Vector (pSBbi_Fucci) and the Transposase SB100X have been described previously. […] Two days after transfection, cells were selected over 10 days using puromycin (1 µg/mL) and cultivated afterwards for two more weeks in McCoys 5A plus L-Glutamine (Gibco) supplemented by 10% FBS (Gibco) and Penicillin/Streptomycin (Gibco).
Fluorescence and cellular shape were measured before and after compound treatment for 72 h every 12 h using the CQ1 high-content confocal microscope (Yokogawa). […]
Image analysis was performed using the CellPathfinder software (Yokogawa). Segmentation of cells was performed as described earlier. First, the cells are classified in Hoechst High Intensity Objects or Normal Intensity Objects (Supplementary Table S7). All normal gated cells are further classified in healthy, fragmented or pyknosed nuclei (Supplementary Table S7). […] Total cell count was normalized against total cell count of cells treated with 0.1% DMSO.

HCT116-FUCCI cells [2] = test system: HCT116-FUCCI cells; design: method as in per compound as in column reference of Table S3; conditions: literature annotation in Table S3; ref per compound as in Table S3; cited from earlier work
U2OS cells [3] = conditions: High-Via Extend protocol, cell line and unit inferred
U2OS cells [4] = experiment: Multiplex high-content protocol (nuclei gating, tubulin, mitochondrial mass, membrane permeability); type: cell-based, human
Method: Using the CQ1 high-content confocal microscope (Yokogawa), cellular shape and fluorescence was measured before and 12 h as well as 24 h after compound treatment. All compounds were diluted in DMSO to a concentration of 10 mM.
The rather large spacing distance was used to create a robust readout, compensating potential plate variations and enabling automated screening without the use of autofocus. The overlap of the fluorescence emission spectra of the dyes was neglectable for all but the MitoTracker Red and Annexin V Alexa Fluor 680 (Supplementary Figure S9).
All images were analyzed using the CellPathfinder software (Yokogawa). Segmentation of cells was performed as described earlier. First, the cells are classified in Hoechst High Intensity Objects or Normal Intensity Objects (Supplementary Table S7). All normal gated cells are further classified in healthy, fragmented or pyknosed nuclei (Supplementary Table S7). The pyknosed cells are gated in mitotic or apoptotic cells using seven features for the cell body and five features for the cell nuclei according to their Annexin V staining intensity (Supplementary Table S7). All cells that were classified as including a healthy nucleus are further gated into three phenotypic classes. […] Growth rate was calculated against non-treated cells and cells treated with DMSO 0.1% [61].

[5] = source not stated; cited from earlier work
FGFR = conditions: cited from earlier work
U2OS cells [6] = experiment: cells; conditions: Homo sapiens
[7] = read-out: IC 50 14 h, Table S2, 14 h
[8] = read-out: IC 50 26 h, Table S2, 26 h
[9] = read-out: IC 50 42 h, Table S2, 42 h
[10] = read-out: IC 50 56 h, Table S2, 56 h

What does the source list for N#Cc1c2nc3ccccc3nc2n2ccc(NC(=O)c3cccs3)cc12 [HI-TOPK-032]?
main nuclei color (HCT116-FUCCI cells [1]): yellow; change of FUCCI nuclei population in comparison to DMSO (HCT116-FUCCI cells [1]): increased number of cells with yellow nuclei; known cell cycle effect (HCT116-FUCCI cells [2]): during mitosis, G1 cell

Which IC50 (U2OS cells [3]; [7]) does the source give for Cc1sc2c(c1C)C(c1ccc(Cl)cc1)=N[C@@H](CC(=O)OC(C)(C)C)c1nnc(C)n1-2 [JQ1] here?
Its IC50 is 9700 nM.

And the IC50 (U2OS cells [3]; [8])?
Its IC50 is 9000 nM.

And the IC50 (U2OS cells [3]; [9])?
Its IC50 is 13700 nM.

What about the IC50 (U2OS cells [3]; [10]) of the same molecule?
The IC50 was 200 nM.

With CCN(CC)CCCCNc1ncc2cc(-c3cc(OC)cc(OC)c3)c(NC(=O)NC(C)(C)C)nc2n1 [PD173074] as the molecule, how does the “Hoechst High Intensity Objects (Hoechst intensity compared to normal nuclei)” value (U2OS cells [4]; U2OS, 1 µM) read?
Its value is “more than 50%”.

And the “compound precipitation in assay” value (U2OS cells [4]; U2OS, 1 µM)?
Its value is “precipitated”.

What about the logP [5] of the same molecule?
The logP was 4.7.

What about the cellular activity (FGFR) of the same molecule?
The cellular activity was “less than 25 nM”.

Which main nuclei color (HCT116-FUCCI cells [1]) does the source give for CN1CCN(C(=O)C(C)(C)c2ccc(C(=O)Nc3cn4cc(-c5ccncc5)ccc4n3)cc2)CC1 [T3-CLK] here?
The main nuclei color was “green”.

What about the “known cell cycle effect” value (HCT116-FUCCI cells [2]) of the same molecule?
Its value is “G2/M cell cycle arrest”.

With CC[C@@]1(O)C(=O)OCc2c1cc1n(c2=O)Cc2cc3ccccc3nc2-1 [camptothecin] as the molecule, how does the “change of FUCCI nuclei population in comparison to DMSO” value (shortened to “change of FUCCI nuclei population”) (HCT116-FUCCI cells [1]) read?
Its value is “increase in green nuclei”.

What about the “Hoechst High Intensity Objects (Hoechst intensity compared to normal nuclei)” value (U2OS cells [4]; U2OS, 1 µM) of the same molecule?
The value was “more than 50%”.

What about the “healthy nuclei (healthy cells)” value (U2OS cells [4]; U2OS, 10 µM, 24 h) of the same molecule?
Its value is “less than 50%”.

And the “Hoechst High Intensity Objects” value (U2OS cells [4]; U2OS, 10 µM, after 24 h, in one of two biological replicates)?
Its value is greater than 30%.

What about the IC50 (U2OS cells [6]; 14 h, read-out: IC 50 14 h) of the same molecule?
The IC50 was 2600 nM.

What about the IC50 (U2OS cells [6]; 14 h, read-out: IC50, normalized healthy cell count) of the same molecule?
The IC50 was 4700 nM.

What about the IC50 (U2OS cells [6]; 14 h, read-out: IC50, normalized healthy nuclear count) of the same molecule?
Its IC50 is 6100 nM.

And the IC50 (U2OS cells [6]; 26 h, read-out: IC 50 26 h)?
Its IC50 is 2300 nM.

And the IC50 (U2OS cells [6]; 28 h, read-out: IC50, normalized healthy cell count)?
The IC50 was 1800 nM.

What about the IC50 (U2OS cells [6]; 28 h, read-out: IC50, normalized healthy nuclear count) of the same molecule?
The IC50 was 1700 nM.

And the IC50 (U2OS cells [6]; 42 h, read-out: IC 50 42 h)?
Its IC50 is 1500 nM.

What about the IC50 (U2OS cells [6]; 42 h, read-out: IC50, normalized healthy cell count) of the same molecule?
Its IC50 is 290 nM.

What about the IC50 (U2OS cells [6]; 42 h, read-out: IC50, normalized healthy nuclear count) of the same molecule?
Its IC50 is 438 nM.

What about the IC50 (U2OS cells [6]; 56 h, read-out: IC 50 56 h) of the same molecule?
Its IC50 is 1100 nM.

And the IC50 (U2OS cells [6]; 56 h, read-out: IC50, normalized healthy cell count)?
Its IC50 is 50.9 nM.

What about the IC50 (U2OS cells [6]; 56 h, read-out: IC50, normalized healthy nuclear count) of the same molecule?
Its IC50 is 43.4 nM.

And the “known cell cycle effect” value (HCT116-FUCCI cells [2])?
The value was “mitotic arrest”.

For COc1cccc2c1C(=O)c1c(O)c3c(c(O)c1C2=O)C[C@@](O)(C(C)=O)C[C@@H]3O[C@H]1C[C@H](N)[C@H](O)[C@H](C)O1 [daunorubicin], which “change of FUCCI nuclei population” value (HCT116-FUCCI cells [1]) is on record?
The value was “More yellow nuclei”.

What about the “healthy nuclei (healthy cells)” value (U2OS cells [4]; U2OS, 10 µM, 24 h) of the same molecule?
Its value is “less than 50%”.

And the “known cell cycle effect” value (HCT116-FUCCI cells [2])?
Its value is “breaks, cell cycle arrest”.

What does the source list for COc1cccc2c1C(=O)c1c(O)c3c(c(O)c1C2=O)C[C@@](O)(C(=O)CO)C[C@@H]3O[C@H]1C[C@H](N)[C@H](O)[C@H](C)O1 [doxorubicin]?
change of FUCCI nuclei population in comparison to DMSO (HCT116-FUCCI cells [1]): More yellow nuclei; known cell cycle effect (HCT116-FUCCI cells [2]): G0/G1 cell cycle arrest

Which results are given for CNC(=O)c1nn(C)c2c1C(C)(C)Cc1cnc(Nc3ccc(N4CCN(C)CC4)cc3)nc1-2 [milciclib]?
cell cycle population distribution of healthy gated nuclei (HCT116-FUCCI cells [1]; 1 µM, after 18 h, versus DMSO): higher population of ‘red’ nuclei; IC50 (HCT116-FUCCI cells [1]; 18h, read-out: IC50(18h), normalized healthy cell count): 5990 ± 260 nM; IC50 (HCT116-FUCCI cells [1]; 32h, read-out: IC50(32h), normalized healthy cell count): 1990 ± 350 nM; IC50 (HCT116-FUCCI cells [1]; 45h, read-out: IC50(45h), normalized healthy cell count): 850 ± 90 nM; IC50 (HCT116-FUCCI cells [1]; 59h, read-out: IC50(59h), normalized healthy cell count): 570 ± 50 nM; increase in mitochondrial mass in comparison to DMSO (U2OS cells [4]; U2OS, 10 µM, 24 h, healthy nuclei only): over 60%; IC50 (U2OS cells [6]; 14 h, read-out: IC 50 14 h): 2100 nM; IC50 (U2OS cells [6]; 26 h, read-out: IC 50 26 h): 800 nM; IC50 (U2OS cells [6]; 42 h, read-out: IC 50 42 h): 600 nM; IC50 (U2OS cells [6]; 56 h, read-out: IC 50 56 h): 500 nM; known cell cycle effect (HCT116-FUCCI cells [2]): G1 cell cy cle arrest

With O=C1c2c(O)ccc(O)c2C(=O)c2c(NCCNCCO)ccc(NCCNCCO)c21 [mitoxantrone] as the molecule, how does the “change of FUCCI nuclei population” value (HCT116-FUCCI cells [1]) read?
The value was “increase in green nuclei”.

What about the “known cell cycle effect” value (HCT116-FUCCI cells [2]) of the same molecule?
Its value is “delay in cell cycle”.

For CC(=O)O[C@H]1C(=O)[C@@]2(C)[C@H]([C@H](OC(=O)c3ccccc3)[C@]3(O)C[C@H](OC(=O)[C@H](O)[C@@H](NC(=O)c4ccccc4)c4ccccc4)C(C)=C1C3(C)C)[C@]1(OC(C)=O)CO[C@@H]1C[C@@H]2O [paclitaxel], which “change of FUCCI nuclei population” value (HCT116-FUCCI cells [1]) is on record?
The value was “increase in red nuclei”.

And the IC50 (U2OS cells [6]; 14 h, read-out: IC 50 14 h)?
The IC50 was greater than 2000 nM.

What about the IC50 (U2OS cells [6]; 26 h, read-out: IC 50 26 h) of the same molecule?
Its IC50 is 100 nM.

And the IC50 (U2OS cells [6]; 42 h, read-out: IC 50 42 h)?
Its IC50 is 60 nM.

What about the IC50 (U2OS cells [6]; 56 h, read-out: IC 50 56 h) of the same molecule?
The IC50 was 50 nM.

What about the “known cell cycle effect” value (HCT116-FUCCI cells [2]) of the same molecule?
Its value is “concentration-dependent”.

Which results are given for COc1ccc(C[C@H](N)C(=O)N[C@H]2[C@@H](O)[C@H](n3cnc4c(N(C)C)ncnc43)O[C@@H]2CO)cc1 [puromycin]?
mitochondrial mass, first analysis gating all cells independently of viability (U2OS cells [4]; 10 µM): increased mitochondrial mass; tubulin effect, first analysis gating all cells independently of viability (U2OS cells [4]; 10 µM): tubulin effects; healthy nuclei (healthy cells) (U2OS cells [4]; U2OS, 10 µM, 24 h): less than 50%; known cell cycle effect (HCT116-FUCCI cells [2]): effect on cell cycle

For CN[C@@H]1C[C@H]2O[C@@](C)([C@@H]1OC)n1c3ccccc3c3c4c(c5c6ccccc6n2c5c31)C(=O)NC4 [staurosporine], which “mitochondrial mass, first analysis gating all cells independently of viability” value (U2OS cells [4]; 10 µM) is on record?
Its value is “increased mitochondrial mass”.

What about the “tubulin effect, first analysis gating all cells independently of viability” value (U2OS cells [4]; 10 µM) of the same molecule?
Its value is “tubulin effects”.

And the “healthy nuclei (healthy cells)” value (U2OS cells [4]; U2OS, 10 µM, 24 h)?
Its value is “less than 50%”.

And the “known cell cycle effect” value (HCT116-FUCCI cells [2])?
Its value is “dose-dependent cell”.

Which results are given for CCC(=O)N1CCN(c2ccc(-n3c(=O)ccc4cnc5ccc(-c6cnc7ccccc7c6)cc5c43)cc2C(F)(F)F)CC1 [torin]?
IC50 (U2OS cells [3]; [7]): 800 nM; IC50 (U2OS cells [3]; [8]): 800 nM; IC50 (U2OS cells [3]; [9]): 700 nM; IC50 (U2OS cells [3]; [10]): 700 nM

With O=c1cc(-c2ccccc2)oc2c1ccc1ccccc12 [α-naphthoflavone] as the molecule, how does the “change of FUCCI nuclei population” value (HCT116-FUCCI cells [1]) read?
The value was “increase in red nuclei”.

And the “known cell cycle effect” value (HCT116-FUCCI cells [2])?
The value was “G1 cell cy cle arrest”.
